In the NIST ThermoML archive (doi:10.1021/je100864e):
± gives the expanded uncertainty stated by the source.

Assay: osmotic coefficient (dimensionless); mn = molality of the nth substance listed, in mol/kg
Settings: 298.15 K, Liquid, isopiestic method

SMILES: O=C([O-])CC(O)(CC(=O)[O-])C(=O)O.[Na+].[Na+] [disodium hydrogen citrate] + O
- osmotic coefficient (m1 = 0.2817): 0.806 ± 0.01
- osmotic coefficient (m1 = 0.2939): 0.792 ± 0.01
- osmotic coefficient (m1 = 0.3096): 0.77 ± 0.012
- osmotic coefficient (m1 = 0.3227): 0.773 ± 0.011
- osmotic coefficient (m1 = 0.3856): 0.759 ± 0.012
- osmotic coefficient (m1 = 0.4011): 0.753 ± 0.012
- osmotic coefficient (m1 = 0.4258): 0.75 ± 0.013
- osmotic coefficient (m1 = 0.4592): 0.724 ± 0.014
- osmotic coefficient (m1 = 0.4761): 0.726 ± 0.014
- osmotic coefficient (m1 = 0.4822): 0.728 ± 0.014
- osmotic coefficient (m1 = 0.5501): 0.714 ± 0.014
- osmotic coefficient (m1 = 0.6381): 0.71 ± 0.015
- osmotic coefficient (m1 = 0.6827): 0.706 ± 0.015
- osmotic coefficient (m1 = 0.6915): 0.705 ± 0.015
- osmotic coefficient (m1 = 0.6951): 0.707 ± 0.015
- osmotic coefficient (m1 = 0.6997): 0.708 ± 0.015
- osmotic coefficient (m1 = 1.018): 0.689 ± 0.016
- osmotic coefficient (m1 = 1.09): 0.688 ± 0.016
- osmotic coefficient (m1 = 1.107): 0.682 ± 0.016
- osmotic coefficient (m1 = 1.246): 0.688 ± 0.016
- osmotic coefficient (m1 = 1.329): 0.682 ± 0.016
- osmotic coefficient (m1 = 1.579): 0.694 ± 0.015
- osmotic coefficient (m1 = 1.635): 0.694 ± 0.015
- osmotic coefficient (m1 = 1.659): 0.69 ± 0.016
- osmotic coefficient (m1 = 1.731): 0.69 ± 0.016
- osmotic coefficient (m1 = 1.788): 0.701 ± 0.015
- osmotic coefficient (m1 = 1.928): 0.702 ± 0.015
- osmotic coefficient (m1 = 1.934): 0.693 ± 0.015
- osmotic coefficient (m1 = 2): 0.704 ± 0.015
- osmotic coefficient (m1 = 2.327): 0.711 ± 0.014
- osmotic coefficient (m1 = 2.393): 0.712 ± 0.014
- osmotic coefficient (m1 = 2.439): 0.711 ± 0.014

SMILES: O=C([O-])CC(O)(CC(=O)O)C(=O)O.[Na+] [sodium dihydrogen citrate] + O
- osmotic coefficient (m1 = 0.3252): 0.849 ± 0.008
- osmotic coefficient (m1 = 0.4619): 0.829 ± 0.009
- osmotic coefficient (m1 = 0.5944): 0.82 ± 0.009
- osmotic coefficient (m1 = 0.7158): 0.803 ± 0.01
- osmotic coefficient (m1 = 0.7377): 0.81 ± 0.01
- osmotic coefficient (m1 = 0.7458): 0.805 ± 0.01
- osmotic coefficient (m1 = 0.7565): 0.801 ± 0.01
- osmotic coefficient (m1 = 0.7666): 0.798 ± 0.01
- osmotic coefficient (m1 = 0.78): 0.81 ± 0.01
- osmotic coefficient (m1 = 0.9089): 0.801 ± 0.01
- osmotic coefficient (m1 = 1.096): 0.813 ± 0.009
